Consider ten molecules from patent publication US10408783B2, “Electrochemical methods and compounds for the detection of enzymes” (GEORGIA STATE UNIVERSITY RESEARCH FOUNDATION, INC., priority 2014, dated 2019).

One test relates to H3N2 A/Aichi/2/1968. The test can be described thus: Electrochemical assay, 3 electrode system: SG1 cleavage and drug susceptibility. Type of test: biochemical, Influenza A virus. Conditions: 10 ng antiviral premixed 30 min before SG1.
Test [1] deals with N2 NA (strain A/Babol/36/2005). The description is as above. The test is classed as biochemical, influenza virus. The settings on record: 10 ng antiviral premixed 30 min before SG1.
A further test relates to H3N2 A/HongKong/8/68. Described as above. Type of test: biochemical, Influenza A virus. The settings on record: 10 ng antiviral premixed 30 min before SG1.
For another test, the system named is H1N1 A/Brisbane/59/2007. The test is described as above. Type of test: biochemical, Influenza A virus. Conditions: 10 ng antiviral premixed 30 min before SG1.
In test [2] the test system is membrane free soluble N1 NA (strain H5N1 A/Anhui/1/2005). Type of test: biochemical, influenza virus. The settings on record: 10 ng antiviral premixed 30 min before SG1.
The test system of a further test is β-Galactosidase. The settings on record: substrate incubated with β-Galactosidase.
The test system of a further test is α-Mannosidase. The test is classed as biochemical. The settings on record: substrate incubated with α-Mannosidase.
The test system of another test is β-Glucuronidase. The settings on record: substrate incubated with β-Glucuronidase.
The subject of another test is α-L-Fucosidase. Type of test: biochemical. The settings on record: substrate incubated with α-L-Fucosidase.
The subject of test [3] is β-N-Acetylglucosaminidase. Type of test: biochemical. Conditions: substrate incubated with β-N-Acetylglucosaminidase.
Test [4] concerns bacterial NA (BNA) from Clostridium perfringens. Type of test: biochemical. The settings on record: antiviral premixed with bacterial NA, then SG1.
The test system of test [5] is H1N1 virus. Nature of the test: Hydrolysis of the probe by intact influenza virus followed by mass spectrum. The settings on record: pH 5.68, 37° C. Type of test: biochemical.
A further test relates to influenza NA. Nature of the test: Hydrolysis of the probe by influenza NA followed by mass spectroscopy. The test is classed as biochemical, influenza virus.
Test [6] has as its system H1N1 virus. The test can be described thus: Hydrolysis of sialylglucose by intact influenza virus, amperometric glucose measurement. The test is classed as biochemical. The settings on record: for current compared with glucose standard solution: H1N1 virus.
Test [7] concerns H3N2 virus. The test is described as above. The test is classed as biochemical. The settings on record: H3N2 virus overnight.
The subject of another test is H5N1 NA. The test is classed as biochemical, influenza virus. The settings on record: H5N1 NA overnight.
In test [8] the test system is H3N2 virus. The test can be described thus: Hydrolysis of the probe by intact influenza virus followed by mass spectrum. Type of test: biochemical. The settings on record: pH 5.68, 37° C.
The subject of the next test is H3N2 NA. The test is classed as biochemical, influenza virus. The settings on record: H3N2 NA overnight.
Setting [9] is: H1N1 virus 1 h, 1 mM substrate, pH 5.68, 37° C.

“Also recorded” adds a separate entry of the source.

As for `CCOC(=O)C1=C[C@@H](OC(CC)CC)[C@H](NC(C)=O)[C@@H](N)C1` [Oseltamivir], the “inhibition of NA (glucose release from SG1) by antiviral” value in the test on H3N2 A/Aichi/2/1968 is given as “completely inhibited; also recorded: Glucose was not released”; in test [1] it was “completely inhibited”; in the test on H3N2 A/HongKong/8/68, “completely inhibited; also recorded: Glucose was not released”; with H1N1 A/Brisbane/59/2007 it was “completely inhibited; also recorded: Glucose was not released”; in test [2], “completely inhibited”.

As for `OCC1O[C@@H](OCc2ccc(O[C@H]3OC(CO)[C@@H](O)[C@H](O)C3O)cc2)C(O)[C@@H](O)[C@@H]1O` (some centres unmarked) [Substrate 20], the “i, value of electrochemical assay” value in the test on β-Galactosidase was 10.2 ± 0.6 10^−8 A; in the test with α-Mannosidase, 81.0 ± 1.8 10^−8 A.

Consider `OCC1O[C@@H](OCc2ccc(O[C@@H]3OC(CO)[C@H](O)[C@H](O)C3O)cc2)C(O)[C@@H](O)[C@@H]1O` (some centres unmarked) [Substrate 21], for which the entries for the “i, value of electrochemical assay” value in the test on β-Glucuronidase and in the test with β-Galactosidase were 10.4 ± 1.3 10^−8 A and 77.9 ± 7.3 10^−8 A, respectively.

Consider `O=C(O)C1O[C@@H](Oc2ccc(CO[C@@H]3OC(CO)[C@@H](O)[C@H](O)C3O)cc2)C(O)[C@@H](O)[C@@H]1O` (stereo partly drawn) [Substrate 22, 1-(4-Hydroxymethylphenyl)-β-D-glucopyronuronic acid-1-α/β-D-glucopyranoside], for which the results for the “i, value of electrochemical assay” value with α-L-Fucosidase, in the test on β-Glucuronidase and in the test with α-Mannosidase were 9.7 ± 3.5 10^−8 A, 65.1 ± 4.6 10^−8 A and 12.3 ± 1.2 10^−8 A, respectively.

`CC(=O)NC1[C@H](Oc2ccc(CO[C@@H]3OC(CO)[C@@H](O)[C@H](O)C3O)cc2)OC(CO)[C@@H](O)[C@@H]1O` (some centres unmarked) [Substrate 23]: the “i, value of electrochemical assay” value in test [3] is given as 28.5 ± 4.0 10^−8 A.

On to `CC(=O)NC1[C@@H](Oc2ccc(CO[C@@H]3OC(CO)[C@@H](O)[C@H](O)C3O)cc2)OC(CO)[C@@H](O)[C@@H]1O` (some centres unmarked) [Substrate 24], for which the “i, value of electrochemical assay” value in [3] is on record as 11.1 ± 2.3 10^−8 A.

For `CC1O[C@@H](OCC2OC(O)C(O)[C@@H](O)[C@@H]2O)C(O)[C@@H](O)[C@@H]1O` (some centres unmarked) [Substrate 25], in the test on α-L-Fucosidase, the “i, value of electrochemical assay” value is listed as 44.5 ± 2.9 10^−8 A.

For the molecule `CC1O[C@@H](Oc2ccc(CO[C@@H]3OC(CO)[C@@H](O)[C@H](O)C3O)cc2)C(O)[C@@H](O)[C@@H]1O` (some centres unmarked) [Substrate 26], the “i, value of electrochemical assay” value in the test with α-L-Fucosidase is reported as 25.2 ± 2.9 10^−8 A.

As for `CC(=O)N[C@H]1[C@H]([C@H](O)[C@H](O)CO)OC(C(=O)O)=C[C@@H]1N=C(N)N` [Zanamivir], the “inhibition of NA (glucose release from SG1) by antiviral” value in the test with H3N2 A/Aichi/2/1968 is “completely inhibited; also recorded: Glucose was not released”; in [1], “completely inhibited”; in the test with H3N2 A/HongKong/8/68 it was “completely inhibited; also recorded: Glucose was not released”; in the test on H1N1 A/Brisbane/59/2007, “completely inhibited; also recorded: Glucose was not released”; in [2], “completely inhibited”. The “inhibition of bacterial NA (glucose release from SG1) by antiviral” value in [4] is given as “NA still cleaved SG1; also recorded: glucose was released”.

Turning to `CC(=O)N[C@H]1[C@H]([C@H](O)[C@H](O)CO)O[C@@](OC[C@H]2O[C@H](O)[C@H](O)[C@@H](O)[C@@H]2O)(C(=O)O)C[C@@H]1O` [sialylglucose, 5-acetamido-3,5-dideoxy-D-glycero-α-D-galacto-non-2-ulopyranosylonate-(2→6) α-D-glucopyranoside], the “hydrolysis by intact influenza virus (mass spectrum)” value in the test with H1N1 virus [5] and in the test with H3N2 virus [8] was “complete hydrolysis” each time. Also, the “hydrolysis of the probe by NA (mass spectrum)” value in the test with influenza NA (pH 5.68, 37° C., overnight) is on record as “substrate peak could no longer be observed”; in the test with influenza NA (pH 7.40, room temperature, overnight incubation) it was “incomplete hydrolysis”. The “Calculated Glucose Concentration” value was 116.2 µM in the test on H1N1 virus [6] (setting [9]); 126.6 µM in the test on H1N1 virus [6] (H1N1 virus 5 h); 50.66 µM in the test with H1N1 virus [6] (H1N1 virus overnight); 76.09 µM in the test on H3N2 virus [7]; 66.47 µM in the test with H5N1 NA; 102.3 µM in the test on H3N2 NA. Further, the Current in the test with H1N1 virus [6] (setting [9]) came to 1.262E−07 A; in the test on H1N1 virus [6] (H1N1 virus 5 h), 1.366E−07 A; with H1N1 virus [6] (H1N1 virus overnight), 6.066E−08 A; in the test with H3N2 virus [7] it was 8.609E−08 A; in the test with H5N1 NA it was 7.647E−08 A; in the test with H3N2 NA, 1.123E−07 A. In the test with H1N1 virus [6] (H1N1 virus overnight), the “current compared with 1 h and 5 h samples” value is reported as “significantly lower current”. Also, the “current compared with glucose standard solution” value in the test on H1N1 virus [6] (hydrolysis stopped at 1 h) and in the test with H1N1 virus [6] (hydrolysis stopped at 5 h) was around 100 µM each time.
